Data taken from publication PMC5638327, “Comparison of bioavailability and antiplatelet action of ticagrelor in patients with ST-elevation myocardial infarction and non-ST-elevation myocardial infarction: A prospective, observational, single-centre study” (PLoS ONE, 2017).

Assay: Adverse events during the observation period (12 hours after ticagrelor LD)
Type: in vivo, human (patients with myocardial infarction)
From the text: Between November 2015 and January 2017, a total of 73 consecutive AMI patients (49 STEMI and 24 NSTEMI) were enrolled. The recruitment continued until the minimum required number of patients were enrolled in the less numerous group (NSTEMI). There were no differences in the baseline characteristics between the two groups, except higher mean left ventricle ejection fraction seen in NSTEMI patients at discharge (Table 1). Of note, as expected numerically greater proportion of STEMI patients were treated with morphine, but this difference was statistically insignificant. Adverse events during the observation period (12 hours after ticagrelor LD) were sporadic and mild (STEMI vs. NSTEMI: Thrombolysis in Myocardial Infarction minimal bleeding 6.1% vs. 8.3%, p = 0.92; dyspnea 2.0% vs. 4.2%, p = 0.83; vomiting 4.1% vs. 4.2%, p = 0.56). […]
Ludwika Rydygiera w Bydgoszczy (study
PLATO trial, deﬁnite or probable stent thrombosis approval reference number: KB 617/2015). […]
Thrombolysis In Myocardial Infarction (TIMI) criteria, still being collected, currently no additional data are available besides given in dyspnoea adverse events according to criteria used in the submitted study protocol. […]
Postepy […]
trial is expected to be the ﬁrst study to elucidateKardiol Interwencyjnej 2015;11:259–80. whether STEMI is associated with poorer absorption and 8. Navarese EP, Buffon A, Kozinski M, et al. A critical overview on ticagrelor in acute coronary syndromes. QJM 2013;106:105–15. subsequently weaker antiplatelet action of ticagrelor in 9. Adamski P, Koziński M, Ostrowska M, et al. Overview of pleiotropic comparison with NSTEMI. effects of platelet P2Y12 receptor inhibitors. Thromb Haemost […]
1Department of Principles of Clinical Medicine, Collegium Medicum, Nicolaus Drug Metab Dispos 2010;38:1514–21.
Copernicus University, Bydgoszcz, Poland 11. Husted S, Emanuelsson H, Heptinstall S, et al. Pharmacodynamics, 2Department of Pharmacology and Therapy, Collegium Medicum, Nicolaus pharmacokinetics, and safety of the oral reversible P2Y12 antagonist AZD6140 with aspirin in patients with atherosclerosis: a double-blind
Copernicus University, Bydgoszcz, Poland comparison to clopidogrel with aspirin. Eur Heart J 3Department of Cardiology and Internal Medicine, Collegium Medicum, 2006;27:1038–47.
Nicolaus Copernicus University, Bydgoszcz, Poland 12. Varenhorst C, Eriksson N, Johansson Å, et al. Effect of genetic 4Department of Theoretical Foundations of Biomedical Science and Medical variations on ticagrelor plasma levels and clinical outcomes.
Informatics, Collegium Medicum, Nicolaus Copernicus University, Bydgoszcz, Eur Heart J 2015;36:1901–12.
Poland 13. Teng R, Mitchell P, Butler K. Effect of age and gender on 5Department of Laboratory Medicine, Collegium Medicum, Nicolaus pharmacokinetics and pharmacodynamics of a single ticagrelor dose in healthy individuals. Eur J Clin Pharmacol 2012;68:1175–82.
Copernicus University, Bydgoszcz, Poland 14. Teng R, Mitchell PD, Butler K. Lack of significant food effect on the 6Department of Medicinal Chemistry, Collegium Medicum, Nicolaus pharmacokinetics of ticagrelor in healthy volunteers. J Clin Pharm Copernicus University, Bydgoszcz, Poland Ther 2012;37:4648.– […]

CCCSc1nc(N[C@@H]2C[C@H]2c2ccc(F)c(F)c2)c2nnn([C@@H]3C[C@H](OCCO)[C@@H](O)[C@H]3O)c2n1 [ticagrelor]
Thrombolysis in Myocardial Infarction minimal bleeding (NSTEMI patients): 8.3%
dyspnea (NSTEMI patients): 4.2%
vomiting (NSTEMI patients): 4.2%
Thrombolysis in Myocardial Infarction minimal bleeding (STEMI patients): 6.1%
dyspnea (STEMI patients): 2.0%
vomiting (STEMI patients): 4.1%
